# Results as given in patent publication US10874743B2, “IRAK degraders and uses thereof” (Kymera Therapeutics, Inc., priority 2017, dated 2020).
# Molecular target: T1, IRAK4 (Homo sapiens, UniProt Q9NWZ3)
# T1 sequence (Q9NWZ3 1-460): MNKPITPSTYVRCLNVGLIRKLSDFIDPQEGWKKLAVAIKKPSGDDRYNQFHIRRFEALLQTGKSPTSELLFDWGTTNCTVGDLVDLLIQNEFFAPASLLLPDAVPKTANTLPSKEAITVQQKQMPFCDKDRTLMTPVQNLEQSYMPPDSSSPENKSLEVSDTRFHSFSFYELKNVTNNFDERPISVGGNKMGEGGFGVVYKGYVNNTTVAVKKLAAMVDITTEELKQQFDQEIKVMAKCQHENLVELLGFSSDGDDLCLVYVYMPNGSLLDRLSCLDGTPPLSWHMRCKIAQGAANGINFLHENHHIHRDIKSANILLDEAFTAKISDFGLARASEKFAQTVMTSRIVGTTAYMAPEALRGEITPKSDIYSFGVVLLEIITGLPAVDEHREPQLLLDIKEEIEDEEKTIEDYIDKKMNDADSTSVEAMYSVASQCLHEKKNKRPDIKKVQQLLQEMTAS
# Assay: OCI-LY-10 degradation assay (western blot, % IRAK4 degraded after 4 hours)
# Type: cell-based
# Design: endogenous in cells; host or cells: OCI-LY10
# Settings: OCI-LY10 cells; for OCI-LY10 % IRAK4 Degradation: IRAK4 degraded after 4 hours, western blot; for OCI-LY10 % IRAK4 Degradation (0.01 uM) / OCI-LY10 % IRAK4 Degradation (0.1 uM) / OCI-LY10 % IRAK4 Degradation (1 uM): 4 hours; for OCI-LY10 % IRAK4 Degradation (0.01 uM): 0.01 uM compound; for OCI-LY10 % IRAK4 Degradation (0.1 uM): 0.1 uM compound; for OCI-LY10 % IRAK4 Degradation (1 uM): 1 uM compound
# In short: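 IRAK4 loss after 4 h at 37° C was scored A (>50%), B (>20-50%) or C (<20%) from infrared western blots of RIPA lysates, 20-25 μg protein per lane. Compound was applied at 0.003-10 μM final to OCI-LY10 cells cultured in RPMI-1640 with 20% FBS and 55 μM 2-ME.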
Compound,OCI-LY10 % IRAK4 Degradation,also measured
"NC(=O)[C@@H](O)C[C@H]1CCc2sc3ncnc(OC4CCC(N5CCN(C(=O)COCCOCCOCCOCCNc6cccc7c6C(=O)N(C6CCC(=O)NC6=O)C7=O)CC5)CC4)c3c21 (stereo partly drawn) [I-161, (2S)-3-[(8R)-1-[4-[4-[2-[2-[2-[2-[2-[[2-(2,6-dioxo-3-piperidyl)-1,3-dioxo-isoindolin-4-yl]amino]ethoxy]ethoxy]ethoxy]ethoxy]acetyl]piperazin-1-yl]cyclohexoxy]-7,8-dihydro-6H-cyclopenta[4,5]thieno[1,2-c]pyrimidin-8-yl]-2-hydroxy-propanamide]",C (<20% degradation),
"NC(=O)c1nn(C2CN(CCOCCOCCOCCNc3cccc4c3C(=O)N(C3CCC(=O)NC3=O)C4=O)C2)cc1NC(=O)c1coc(-c2ccnc(NCC(F)(F)F)c2)n1 (centres unmarked) [I-169, N-[3-carbamoyl-1-[1-[2-[2-[2-[2-[[2-(2,6-dioxo-3-piperidyl)-1,3-dioxo-isoindolin-4-yl]amino]ethoxy]ethoxy]ethoxy]ethyl]azetidin-3-yl]pyrazol-4-yl]-2-[2-(2,2,2-trifluoroethylamino)-4-pyridyl]oxazole-4-carboxamide]",C (<20% degradation),
"NC(=O)c1nn(C2CCN(CCOCCOCCOCCNc3cccc4c3C(=O)N(C3CCC(=O)NC3=O)C4=O)CC2)cc1NC(=O)c1coc(-c2ccnc(NCC(F)(F)F)c2)n1 (centres unmarked) [I-170, N-[3-carbamoyl-1-[1-[2-[2-[2-[2-[[2-(2,6-dioxo-3-piperidyl)-1,3-dioxo-isoindolin-4-yl]amino]ethoxy]ethoxy]ethoxy]ethyl]-4-piperidyl]pyrazol-4-yl]-2-[2-(2,2,2-trifluoroethylamino)-4-pyridyl]oxazole-4-carboxamide]",B (>20-50% degradation),
"N#Cc1cnc2c(cnn2-c2cc(NC3CC3)c(C(=O)NCC(F)COc3cccc4c3C(=O)N(C3CCC(=O)NC3=O)C4=O)cn2)c1 (centres unmarked) [I-173, 6-(5-Cyanopyrazolo[3,4-b]pyridin-1-yl)-4-(cyclopropylamino)-N-[3-[2-(2,6-dioxo-3-piperidyl)-1,3-dioxo-isoindolin-4-yl]oxy-2-fluoro-propyl]pyridine-3-carboxamide]",C (<20% degradation),
"O=C1CCC(N2C(=O)c3cccc(OCC(F)CNC(=O)c4cnc(Nc5ccc6cnccc6n5)cc4NC4CC4)c3C2=O)C(=O)N1 (centres unmarked) [I-174, 4-(Cyclopropylamino)-N-[3-[2-(2,6-dioxo-3-piperidyl)-1,3-dioxo-isoindolin-4-yl]oxy-2-fluoro-propyl]-6-(1,6-naphthyridin-2-ylamino)pyridine-3-carboxamide]",C (<20% degradation),
"N#Cc1cnc2c(cnn2-c2cc(NC3CC3)c(-c3cn(CCOCCOCCOCCNc4cccc5c4C(=O)N(C4CCC(=O)NC4=O)C5=O)nn3)cn2)c1 (centres unmarked) [I-175, 1-[4-(cyclopropylamino)-5-[1-[2-[2-[2-[2-[[2-(2,6-dioxo-3-piperidyl)-1,3-dioxo-isoindolin-4-yl]amino]ethoxy]ethoxy]ethoxy]ethyl]triazol-4-yl]-2-pyridyl]pyrazolo[3,4-b]pyridine-5-carbonitrile]",C (<20% degradation),
"N#Cc1cnc2c(cnn2-c2cc(NC3CC3)c(-c3cn(CCOCCOCCOCCOCCOCCNc4cccc5c4C(=O)N(C4CCC(=O)NC4=O)C5=O)nn3)cn2)c1 (centres unmarked) [I-176, 1-[4-(Cyclopropylamino)-5-[1-[2-[2-[2-[2-[2-[2-[[2-(2,6-dioxo-3-piperidyl)-1,3-dioxo-isoindolin-4-yl]amino]ethoxy]ethoxy]ethoxy]ethoxy]ethoxy]ethyl]triazol-4-yl]-2-pyridyl]pyrazolo[3,4-b]pyridine-5-carbonitrile]",C (<20% degradation),
"NC(=O)c1nn(-c2ccc(C(=O)NCC#CC#CCNc3cccc4c3C(=O)N(C3CCC(=O)NC3=O)C4=O)cc2)cc1NC(=O)c1coc(-c2ccnc(NCC(F)(F)F)c2)n1 (centres unmarked) [I-177, N-[3-carbamoyl-1-[4-[6-[[2-(2,6-dioxo-3-piperidyl)-1,3-dioxo-isoindolin-4-yl]amino]hexa-2,4-diynylcarbamoyl]phenyl]pyrazol-4-yl]-2-[2-(2,2,2-trifluoroethylamino)-4-pyridyl]oxazole-4-carboxamide]",C (<20% degradation),
"NC(=O)c1nn(-c2ccc(C(=O)NCC#CC#CCCNc3cccc4c3C(=O)N(C3CCC(=O)NC3=O)C4=O)cc2)cc1NC(=O)c1coc(-c2ccnc(NCC(F)(F)F)c2)n1 (centres unmarked) [I-178, N-[3-carbamoyl-1-[4-[7-[[2-(2,6-dioxo-3-piperidyl)-1,3-dioxo-isoindolin-4-yl]amino]hepta-2,4-diynylcarbamoyl]phenyl]pyrazol-4-yl]-2-[2-(2,2,2-trifluoroethylamino)-4-pyridyl]oxazole-4-carboxamide]",C (<20% degradation),
"NC(=O)[C@@H](O)C[C@H]1CCc2sc3ncnc(O[C@H]4CC[C@H](N5CCN(CCOCCNc6cccc7c6C(=O)N(C6CCC(=O)NC6=O)C7=O)CC5)CC4)c3c21 (stereo partly drawn) [I-184, T(2R)-3-[(8R)-1-[4-[4-[2-[2-[[2-(2,6-dioxo-3-piperidyl)-1,3-dioxo-isoindolin-4-yl]amino]V ethoxy]ethyl]piperazin-1-yl]cyclohexoxy]-7,8-dihydro-6H-cyclopenta[4,5]thieno[1,2-c]pyrimidin-8-yl]-2-hydroxy-propanamide]",C (<20% degradation),
"O=C1CCC(N2C(=O)c3ccc(CCCOCCOCCNCc4ccc(-n5cc(NC(=O)c6coc(-c7ccnc(NCC8CC8)c7)n6)c(C(F)(F)F)n5)cc4)cc3C2=O)C(=O)N1 (centres unmarked) [I-187, 2-[2-(Cyclopropylmethylamino)-4-pyridyl]-N-[1-[4-[[2-[2-[3-[2-(2,6-dioxo-3-piperidyl)-1,3-dioxo-isoindolin-5-yl]propoxy]ethoxy]ethylamino]methyl]phenyl]-3-(trifluoromethyl)pyrazol-4-yl]oxazole-4-carboxamide]",B (>20-50% degradation),
"Cc1ncsc1-c1ccc(CNC(=O)[C@@H]2C[C@@H](O)CN2C(=O)[C@@H](NCCCCCOCCOCCCCCNC(=O)c2ccc(-n3cc(NC(=O)c4coc(-c5ccnc(NCC(F)(F)F)c5)n4)c(C(N)=O)n3)cc2)C(C)(C)C)cc1 [I-188, N-(3-carbamoyl-1-(4-((5-(2-((5-(((S)-1-((2S,4R)-4-hydroxy-2-((4-(4-methylthiazol-5-yl)benzyl)carbamoyl)pyrrolidin-1-yl)-3,3-dimethyl-1-oxobutan-2-yl)amino)pentyl)oxy)ethoxy)pentyl)carbamoyl)phenyl)-1H-pyrazol-4-yl)-2-(2-((2,2,2-trifluoroethyl)amino)pyridin-4-yl)oxazole-4-carboxamide]",C (<20% degradation),
O=C1CCC(N2C(=O)c3cccc(NCCOCCNC(=O)c4ccc(-n5cc(NC(=O)c6coc(-c7ccnc(NCC8CC8)c7)n6)c(C(F)F)n5)cc4)c3C2=O)C(=O)N1 (centres unmarked) [I-211],,OCI-LY10 % IRAK4 Degradation (0.01 uM): B (>20-50% degradation); OCI-LY10 % IRAK4 Degradation (0.1 uM): B (>20-50% degradation); OCI-LY10 % IRAK4 Degradation (1 uM): B (>20-50% degradation)
O=C1CCC(N2C(=O)c3cccc(NCCOCCOCCOCCOCCNC(=O)c4ccc(-n5cc(NC(=O)c6coc(-c7ccnc(NCC8CC8)c7)n6)c(C(F)F)n5)cc4)c3C2=O)C(=O)N1 (centres unmarked) [I-212],,OCI-LY10 % IRAK4 Degradation (0.01 uM): B (>20-50% degradation); OCI-LY10 % IRAK4 Degradation (0.1 uM): A (>50% degradation); OCI-LY10 % IRAK4 Degradation (1 uM): A (>50% degradation)
NCc1nn(-c2ccc(C(=O)NCCOCCOCCNc3cccc4c3C(=O)N(C3CCC(=O)NC3=O)C4=O)cc2)cc1NC(=O)c1coc(-c2ccnc(NCC(F)(F)F)c2)n1 (centres unmarked) [I-215],,OCI-LY10 % IRAK4 Degradation (0.01 uM): A (>50% degradation); OCI-LY10 % IRAK4 Degradation (0.1 uM): A (>50% degradation); OCI-LY10 % IRAK4 Degradation (1 uM): A (>50% degradation)
O=C1CCC(N2C(=O)c3cccc(NCCOCCOCCNC(=O)c4ccc(-n5cc(NC(=O)c6coc(-c7ccnc(NCC8CC8)c7)n6)c(C(F)(F)F)n5)cc4)c3C2=O)C(=O)N1 (centres unmarked) [I-220],,OCI-LY10 % IRAK4 Degradation (0.01 uM): B (>20-50% degradation); OCI-LY10 % IRAK4 Degradation (0.1 uM): B (>20-50% degradation); OCI-LY10 % IRAK4 Degradation (1 uM): B (>20-50% degradation)

# Now from value to molecule, other results behind:
OCI-LY10 % IRAK4 Degradation,Compound,also measured
C (<20% degradation),N#Cc1ccc2ncc(-c3cccc(NC4CCN(CCCCCOCCOCCCCCNC(=O)COc5cccc6c5C(=O)N(C5CCC(=O)NC5=O)C6=O)C4)n3)n2c1 (centres unmarked) [I-204],
C (<20% degradation),Cc1ncsc1-c1ccc(CNC(=O)[C@@H]2C[C@@H](O)CN2C(=O)[C@@H](NC(=O)COCCCCCOCCCCCNC(=O)CN2CCC(Nc3cccc(-c4cnc5ccc(C#N)cn45)n3)C2)C(C)(C)C)cc1 (some centres unmarked) [I-205],
C (<20% degradation),Cc1ncsc1-c1ccc(CNC(=O)[C@@H]2C[C@@H](O)CN2C(=O)[C@@H](NC(=O)COCCOCCOCCOCCOCCNC(=O)C(F)CNC(=O)c2cnc(Nc3ccc4cnccc4n3)cc2NC2CC2)C(C)(C)C)cc1 (some centres unmarked) [I-207],
C (<20% degradation),N#Cc1ccc2ncc(-c3cccc(NC4CCN(CCOCCOCCOCCOCCOCCNc5cccc6c5C(=O)N(C5CCC(=O)NC5=O)C6=O)C4)n3)n2c1 (centres unmarked) [I-208],
C (<20% degradation),Cc1ncsc1-c1ccc(CNC(=O)[C@@H]2C[C@@H](O)CN2C(=O)[C@@H](NC(=O)COCCOCCOCCOCCOCCN2CCC(Nc3cccc(-c4cnc5ccc(C#N)cn45)n3)C2)C(C)(C)C)cc1 (some centres unmarked) [I-209],
